Results published in the supplement of paper PMC10307832.

Experiments:
Assay in all cases: relative viability (nuclei count vs DMSO), 5 days (fraction); higher = more cells survive
A-427 = system: A-427
Outline: (§1)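 For relative viability, nuclei counts in treated wells were divided by those in vehicle wells. Lung cancer cell lines had been pin-tool dosed in 1536-well plates the day after seeding and cultured for 5 days, then fixed and stained in one step (final 0.05% Triton X-100, 1% formaldehyde, 1 ug/ml Hoechst) and imaged at 4×. Doses were one drug alone or a fixed anchor-drug dose plus five library-drug doses (not always all listed) in √10 steps, and values are duplicate-plate medians.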

CAL-12T = system: CAL-12T
Outline: as §1

COR-L 105 = system: COR-L 105
Outline: as §1

COR-L23 = system: COR-L23
Outline: as §1

EPLC-272H = system: EPLC-272H
Outline: as §1

HOP-62 = system: HOP-62
Outline: as §1

LCLC-103H = system: LCLC-103H
Outline: as §1

LXF-289 = system: LXF-289
Outline: as §1

NCI-H1395 = system: NCI-H1395
Outline: as §1

NCI-H1651 = system: NCI-H1651
Outline: as §1

NCI-H1975 = system: NCI-H1975
Outline: as §1

NCI-H1993 = system: NCI-H1993
Outline: as §1

NCI-H2023 = system: NCI-H2023
Outline: as §1

NCI-H2085 = system: NCI-H2085
Outline: as §1

NCI-H2087 = system: NCI-H2087
Outline: as §1

NCI-H2170 = system: NCI-H2170
Outline: as §1

NCI-H3122 = system: NCI-H3122
Outline: as §1

NCI-H596 = system: NCI-H596
Outline: as §1

NCI-H647 = system: NCI-H647
Outline: as §1

NCI-H650 = system: NCI-H650
Outline: as §1

PC-14 = system: PC-14
Outline: as §1

RERF-LC-KJ = system: RERF-LC-KJ
Outline: as §1

SK-MES-1 = system: SK-MES-1
Outline: as §1

With `O=c1[nH]c2ccccc2n1C1CCN(CCCC(c2ccc(F)cc2)c2ccc(F)cc2)CC1` [Pimozide] + O=C(CCCCCCC(=O)Nc1ccccc1)NO [Vorinostat] (partner 1 µM) the relative viability (A-427; first compound 0.08 µM) was 0.893, the relative viability (A-427; first compound 0.253 µM) was 0.875 and the relative viability (A-427; first compound 0.8 µM) was 0.775. It also gave a relative viability (A-427; first compound 2.53 µM) of 0.854, a relative viability (A-427; first compound 8 µM) of 0.815 and a relative viability (CAL-12T; first compound 0.08 µM) of 0.732. The relative viability (CAL-12T; first compound 0.253 µM) was 0.896, the relative viability (CAL-12T; first compound 0.8 µM) was 0.7 and the relative viability (CAL-12T; first compound 2.53 µM) was 0.665. For the same compound, the relative viability (CAL-12T; first compound 8 µM) was 0.664, the relative viability (COR-L 105; first compound 0.08 µM) was 0.702 and the relative viability (COR-L 105; first compound 0.253 µM) was 0.767. For the same compound, the relative viability (COR-L 105; first compound 0.8 µM) was 0.821, the relative viability (COR-L 105; first compound 2.53 µM) was 0.833 and the relative viability (COR-L 105; first compound 8 µM) was 0.751. For the same compound, the relative viability (COR-L23; first compound 0.08 µM) was 0.459, the relative viability (COR-L23; first compound 0.253 µM) was 0.414 and the relative viability (COR-L23; first compound 0.8 µM) was 0.343. It also gave a relative viability (COR-L23; first compound 2.53 µM) of 0.432, a relative viability (COR-L23; first compound 8 µM) of 0.495 and a relative viability (EPLC-272H; first compound 0.08 µM) of 0.402. The relative viability (EPLC-272H; first compound 0.253 µM) was 0.453, the relative viability (EPLC-272H; first compound 0.8 µM) was 0.417 and the relative viability (EPLC-272H; first compound 2.53 µM) was 0.418. For the same compound, the relative viability (EPLC-272H; first compound 8 µM) was 0.307, the relative viability (HOP-62; first compound 0.08 µM) was 0.704 and the relative viability (HOP-62; first compound 0.253 µM) was 0.642. The relative viability (HOP-62; first compound 2.53 µM) was 0.494, the relative viability (HOP-62; first compound 8 µM) was 0.416 and the relative viability (LCLC-103H; first compound 0.08 µM) was 0.814. For the same compound, the relative viability (LCLC-103H; first compound 0.253 µM) was 0.802, the relative viability (LCLC-103H; first compound 0.8 µM) was 0.598 and the relative viability (LCLC-103H; first compound 2.53 µM) was 0.759. For the same compound, the relative viability (LCLC-103H; first compound 8 µM) was 0.717, the relative viability (LXF-289; first compound 0.08 µM) was 0.796 and the relative viability (LXF-289; first compound 0.253 µM) was 0.748. It also gave a relative viability (LXF-289; first compound 0.8 µM) of 0.718, a relative viability (LXF-289; first compound 2.53 µM) of 0.88 and a relative viability (LXF-289; first compound 8 µM) of 0.755. For the same compound, the relative viability (NCI-H1395; first compound 0.08 µM) was 0.696, the relative viability (NCI-H1395; first compound 0.253 µM) was 0.607 and the relative viability (NCI-H1395; first compound 0.8 µM) was 0.629. It also gave a relative viability (NCI-H1395; first compound 2.53 µM) of 0.711, a relative viability (NCI-H1395; first compound 8 µM) of 0.628 and a relative viability (NCI-H1651; first compound 0.08 µM) of 0.565. It also gave a relative viability (NCI-H1651; first compound 0.253 µM) of 0.507, a relative viability (NCI-H1651; first compound 0.8 µM) of 0.599 and a relative viability (NCI-H1651; first compound 2.53 µM) of 0.578. It also gave a relative viability (NCI-H1651; first compound 8 µM) of 0.593, a relative viability (NCI-H1975; first compound 0.08 µM) of 0.746 and a relative viability (NCI-H1975; first compound 0.253 µM) of 0.676. It also gave a relative viability (NCI-H1975; first compound 0.8 µM) of 0.672, a relative viability (NCI-H1975; first compound 2.53 µM) of 0.696 and a relative viability (NCI-H1975; first compound 8 µM) of 0.563. It also gave a relative viability (NCI-H1993; first compound 0.08 µM) of 0.502, a relative viability (NCI-H1993; first compound 0.253 µM) of 0.966 and a relative viability (NCI-H1993; first compound 0.8 µM) of 0.68. For the same compound, the relative viability (NCI-H1993; first compound 2.53 µM) was 0.857, the relative viability (NCI-H1993; first compound 8 µM) was 0.533 and the relative viability (NCI-H2023; first compound 0.08 µM) was 0.583. The relative viability (NCI-H2023; first compound 0.253 µM) was 0.747, the relative viability (NCI-H2023; first compound 0.8 µM) was 0.353 and the relative viability (NCI-H2023; first compound 2.53 µM) was 0.547. For the same compound, the relative viability (NCI-H2023; first compound 8 µM) was 0.484, the relative viability (NCI-H2085; first compound 0.08 µM) was 0.77 and the relative viability (NCI-H2085; first compound 0.253 µM) was 0.861. The relative viability (NCI-H2085; first compound 0.8 µM) was 0.723, the relative viability (NCI-H2085; first compound 2.53 µM) was 0.802 and the relative viability (NCI-H2085; first compound 8 µM) was 0.741. For the same compound, the relative viability (NCI-H2087; first compound 0.08 µM) was 0.802, the relative viability (NCI-H2087; first compound 0.253 µM) was 0.597 and the relative viability (NCI-H2087; first compound 2.53 µM) was 0.615. For the same compound, the relative viability (NCI-H2087; first compound 8 µM) was 0.774, the relative viability (NCI-H2170; first compound 0.08 µM) was 0.717 and the relative viability (NCI-H2170; first compound 0.253 µM) was 0.848. For the same compound, the relative viability (NCI-H2170; first compound 0.8 µM) was 0.808, the relative viability (NCI-H2170; first compound 2.53 µM) was 0.793 and the relative viability (NCI-H2170; first compound 8 µM) was 0.771. It also gave a relative viability (NCI-H3122; first compound 0.08 µM) of 0.924, a relative viability (NCI-H3122; first compound 0.253 µM) of 0.951 and a relative viability (NCI-H3122; first compound 0.8 µM) of 0.81. It also gave a relative viability (NCI-H3122; first compound 2.53 µM) of 0.724, a relative viability (NCI-H3122; first compound 8 µM) of 0.847 and a relative viability (NCI-H596; first compound 0.08 µM) of 0.702. The relative viability (NCI-H596; first compound 0.253 µM) was 0.598, the relative viability (NCI-H596; first compound 0.8 µM) was 0.467 and the relative viability (NCI-H596; first compound 2.53 µM) was 0.583. It also gave a relative viability (NCI-H596; first compound 8 µM) of 0.549, a relative viability (NCI-H647; first compound 0.08 µM) of 0.5 and a relative viability (NCI-H647; first compound 0.253 µM) of 0.577. It also gave a relative viability (NCI-H647; first compound 0.8 µM) of 0.621, a relative viability (NCI-H647; first compound 2.53 µM) of 0.268 and a relative viability (NCI-H647; first compound 8 µM) of 0.431. The relative viability (NCI-H650; first compound 0.08 µM) was 0.455, the relative viability (NCI-H650; first compound 0.253 µM) was 0.386 and the relative viability (NCI-H650; first compound 0.8 µM) was 0.399. The relative viability (NCI-H650; first compound 2.53 µM) was 0.454, the relative viability (NCI-H650; first compound 8 µM) was 0.452 and the relative viability (PC-14; first compound 0.253 µM) was 0.711. The relative viability (PC-14; first compound 0.8 µM) was 0.684, the relative viability (PC-14; first compound 2.53 µM) was 0.713 and the relative viability (PC-14; first compound 8 µM) was 0.701. For the same compound, the relative viability (RERF-LC-KJ; first compound 0.08 µM) was 0.616, the relative viability (RERF-LC-KJ; first compound 0.253 µM) was 0.677 and the relative viability (RERF-LC-KJ; first compound 0.8 µM) was 0.612. The relative viability (RERF-LC-KJ; first compound 2.53 µM) was 0.463, the relative viability (RERF-LC-KJ; first compound 8 µM) was 0.613 and the relative viability (SK-MES-1; first compound 0.08 µM) was 1.13. For the same compound, the relative viability (SK-MES-1; first compound 0.253 µM) was 1.02, the relative viability (SK-MES-1; first compound 0.8 µM) was 0.991 and the relative viability (SK-MES-1; first compound 2.53 µM) was 1.06. For the same compound, the relative viability (SK-MES-1; first compound 8 µM) was 0.996.
